# Assay results reported in ChEMBL document CHEMBL1143344, “Novel DNA-directed alkylating agents: design, synthesis and potent antitumor effect of phenyl N-mustard-9-anilinoacridine conjugates via a carbamate or carbonate linker” (Bioorg Med Chem, 2009).
# The source made the active and inactive calls. The rule behind the calls is not given here.
# How the values were obtained:
# [1] = system: CCRF-CEM; assay: Cytotoxicity against human CCRF-CEM cells after 72 hrs by XTT assay; assay type: functional, cell-based
# [2] = system: CCRF-CEM; assay: Cytotoxicity against vinblastine-resistant human CCRF-CEM cells after 72 hrs by XTT assay; assay type: functional, cell-based
# [3] = system: CCRF-CEM; assay: Ratio of IC50 for taxol-resistant human CCRF-CEM cells to IC50 for human CCRF-CEM cells; assay type: functional
# [4] = system: CCRF-CEM; assay: Ratio of IC50 for vinblastine-resistant human CCRF-CEM cells to IC50 for human CCRF-CEM cells; assay type: functional
# [5] = system: MX1; assay: Cytotoxicity against human MX1 cells after 72 hrs by SRB assay; assay type: functional, cell-based; details: MX1, 72 h
# [6] = system: HCT-116; assay: Cytotoxicity against human HCT116 cells after 72 hrs by SRB assay; assay type: functional, cell-based; details: HCT-116, 72 h
# [7] = system: CCRF-CEM; assay: Cytotoxicity against taxol-resistant human CCRF-CEM cells after 72 hrs by XTT assay; assay type: functional, cell-based
# [8] = system: MX1; assay: Antitumor activity against human MX1 cells xenografted in athymic nude mouse assessed as total tumor remission at 100 mg/kg, iv administered qd for 6 days measured after 20 days; assay type: functional, organism-based; design: dose 100 mg/kg
# [9] = system: MX1; assay: Antitumor activity against human MX1 cells xenografted in athymic nude mouse assessed as total tumor remission at 100 mg/kg, iv administered qd for 6 days measured after 22 days; assay type: functional, organism-based; design: dose 100 mg/kg
# [10] = system: MX1; assay: Antitumor activity against human MX1 cells xenografted in athymic nude mouse assessed as no tumor relapse at 100 mg/kg, iv administered qd for 6 days measured after 59 days; assay type: functional, organism-based; design: dose 100 mg/kg
# [11] = Cytotoxicity against human H1299 cells after 72 hrs by WST1 assay; assay type: functional, cell-based; details: NCI-H1299, 72 h
# [12] = system: PC-3; assay: Cytotoxicity against human PC3 cells after 72 hrs by WST1 assay; assay type: functional, cell-based; details: PC-3, 72 h
# [13] = Cytotoxicity against human CL1-0 cells after 72 hrs by WST1 assay; assay type: functional, cell-based; details: CL1-0, 72 h
# [14] = Cytotoxicity against human CL1-5 cells after 72 hrs by WST1 assay; assay type: functional, cell-based; details: CL1-5, 72 h
# [15] = system: MCF7; assay: Cytotoxicity against human MCF7 cells after 72 hrs by WST1 assay; assay type: functional, cell-based; details: MCF7, 72 h
# [16] = system: MX1; assay: Antitumor activity against human MX1 cells xenografted in athymic nude mouse assessed as total tumor remission at 10 mg/kg, iv administered q2d for 3 days measured after 16 days; assay type: functional, organism-based; design: dose 10 mg/kg
# [17] = system: MX1; assay: Antitumor activity against human MX1 cells xenografted in athymic nude mouse assessed as total tumor remission at 10 mg/kg, iv administered q2d for 3 days measured after 18 days; assay type: functional, organism-based; design: dose 10 mg/kg
# [18] = system: MX1; assay: Antitumor activity against human MX1 cells xenografted in athymic nude mouse assessed as total tumor remission at 10 mg/kg, iv administered q2d for 3 days measured after 20 days; assay type: functional, organism-based; design: dose 10 mg/kg
# [19] = system: MX1; assay: Antitumor activity against human MX1 cells xenografted in athymic nude mouse assessed as total tumor remission at 50 mg/kg, iv administered q2d for 9 days measured after 29 days; assay type: functional, organism-based; design: dose 50 mg/kg
# [20] = system: MX1; assay: Antitumor activity against human MX1 cells xenografted in athymic nude mouse assessed as total tumor remission at 50 mg/kg, iv administered q2d for 9 days measured after 31 days; assay type: functional, organism-based; design: dose 50 mg/kg
# [21] = system: MX1; assay: Antitumor activity against human MX1 cells xenografted in athymic nude mouse assessed as total tumor remission at 50 mg/kg, iv administered q2d for 9 days measured after 33 days; assay type: functional, organism-based; design: dose 50 mg/kg
# [22] = system: MX1; assay: Antitumor activity against human MX1 cells xenografted in athymic nude mouse assessed as total tumor remission at 50 mg/kg, iv administered q2d for 9 days measured after 35 days; assay type: functional, organism-based; design: dose 50 mg/kg
# [23] = system: HCT-116; assay: Antitumor activity against human HCT116 cells xenografted in athymic nude mouse assessed as tumor growth inhibition at 50 mg/kg, iv administered q2d for 7 days; assay type: functional; design: scale not given: the % may be the effect or the level left
# [24] = system: Mus musculus; assay: Toxicity in athymic nude mouse xenografted with human HCT116 cells assessed as body weight loss at 50 mg/kg, iv administered q2d for 7 days; assay type: organism-based, HCT-116; design: dose 50 mg/kg, route intravenous; details: in vivo, 168 h
# [25] = system: MX1; assay: Antitumor activity against human MX1 cells xenografted in athymic nude mouse assessed as total tumor remission at 50 mg/kg, iv administered q2d for 5 days measured after 12 days; assay type: functional, organism-based; design: dose 50 mg/kg
# [26] = system: MX1; assay: Antitumor activity against human MX1 cells xenografted in athymic nude mouse assessed as total tumor remission at 50 mg/kg, iv administered q2d for 5 days measured after 20 days; assay type: functional, organism-based; design: dose 50 mg/kg
# [27] = system: MX1; assay: Antitumor activity against human MX1 cells xenografted in athymic nude mouse assessed as no tumor relapse at 50 mg/kg, iv administered q2d for 5 days measured after 129 days; assay type: functional, organism-based; design: dose 50 mg/kg
# [28] = system: H1299; assay: Induction of DNA interstrand cross-linking in 20 Gy irradiated human H1299 cells after 1 hr by comet assay; assay type: cell-based
# [29] = system: H1299; assay: Induction of DNA interstrand cross-linking in 20 Gy irradiated human H1299 cells at 10 uM after 1 hr by comet assay; assay type: cell-based
# [30] = system: H1299; assay: Induction of DNA interstrand cross-linking in 20 Gy irradiated human H1299 cells at 200 uM after 1 hr by comet assay; assay type: cell-based
# [31] = system: H1299; assay: Induction of DNA interstrand cross-linking in 20 Gy irradiated human H1299 cells assessed as decrease in DNA migration after 1 hr by comet assay; assay type: cell-based
# [32] = Stability in rat plasma assessed as half life at 5 ug/ml after 10 mins by HPLC; assay type: ADME, cell-free
# [33] = system: MX1; assay: Antitumor activity against human MX1 cells xenografted in athymic nude mouse assessed as total tumor remission at 40 mg/kg, iv administered q2d for 5 days measured after 20 days; assay type: functional, organism-based; design: dose 40 mg/kg
SMILES,IC50 ([1]; read-out: IC50) [µM],IC50 [2] [µM],Ratio IC50 [3],Ratio IC50 [4],IC50 [5] [µM],IC50 [6] [µM],IC50 [7] [µM],IC50 [11] [µM],IC50 [12] [µM],IC50 [13] [µM],IC50 [14] [µM],IC50 [15] [µM],other results
Cc1ccc(Nc2c3ccccc3nc3ccccc23)cc1NC(=O)Oc1ccc(N(CCCl)CCCl)cc1,0.076,0.158,2.8,2.1,0.214,0.434,0.216,–,–,–,–,–,–
COc1cc(NC(=O)Oc2ccc(N(CCCl)CCCl)cc2)cc(Nc2c3ccccc3nc3ccccc23)c1,0.2,0.108,1.5,0.54,0.34,1.71,0.309,–,–,–,–,–,Activity [8]: Active; Activity [9]: Active; Activity [10]: Active
CCOC(=O)Nc1cc(COC(=O)Nc2ccc(N(CCCl)CCCl)cc2)cc(Nc2c3ccccc3nc3ccccc23)c1,0.085,–,–,–,0.597,–,–,–,–,–,–,–,–
CC(C)OC(=O)Nc1cc(COC(=O)Nc2ccc(N(CCCl)CCCl)cc2)cc(Nc2c3ccccc3nc3ccccc23)c1,0.189,0.753,3.4,4,1.13,0.301,0.648,9.17,16,4,6.63,7.01,–
Cc1cccc2c(Nc3cc(COC(=O)Nc4ccc(N(CCCl)CCCl)cc4)cc(NC(=O)OC(C)(C)C)c3)c3ccccc3nc12,0.75,1.42,4.5,1.9,5.93,2.4,3.36,–,–,–,–,–,–
Cc1c(NC(=O)Oc2ccc(N(CCCl)CCCl)cc2)cccc1Nc1c2ccccc2nc2c(C)cccc12,0.16,0.142,1.09,0.89,0.181,0.32,0.174,–,–,–,–,–,–
CCOC(=O)Nc1cc(COC(=O)Oc2ccc(N(CCCl)CCCl)cc2)cc(Nc2c3ccccc3nc3ccccc23)c1,0.315,0.482,1.6,1.5,0.089,0.639,0.509,0.527,23.3,0.41,4.56,19.8,Activity [16]: Active; Activity [17]: Active; Activity [18]: Active
Nc1cc(CO)cc(Nc2c3ccccc3nc3ccccc23)c1,–,1.6,0.8,2.7,0.0035,–,0.6,–,–,–,–,–,–
CC(=O)O[C@H]1C(=O)[C@@]2(C)[C@H]([C@H](OC(=O)c3ccccc3)[C@]3(O)C[C@H](OC(=O)[C@H](O)[C@@H](NC(=O)c4ccccc4)c4ccccc4)C(C)=C1C3(C)C)[C@]1(OC(C)=O)CO[C@@H]1C[C@@H]2O [PACLITAXEL],–,1.27,330,980,0.046,0.0011,0.429,–,–,–,–,–,IC50 [1]: 0.0031 µM
OCc1cc(Nc2c3ccccc3nc3ccccc23)cc(OCCN(CCCl)CCCl)c1,–,0.034,1.1,4.9,0.0035,–,0.0075,–,–,–,–,–,–
Cc1ccc(Nc2c3ccccc3nc3c(C)cccc23)cc1NC(=O)Oc1ccc(N(CCCl)CCCl)cc1,0.132,0.157,1.3,1.2,0.286,0.607,0.169,–,–,–,–,–,Activity [19]: Active; Activity [20]: Active; Activity [21]: Active; Activity [22]: Active; Activity [23]: 89%; Activity [24]: 8%
O=C(Nc1cc(CO)cc(Nc2c3ccccc3nc3ccccc23)c1)Oc1ccc(N(CCCl)CCCl)cc1,0.075,0.184,1.9,2.5,0.099,0.568,0.14,0.284,1.61,2.69,5.06,4.8,Activity [25]: Active; Activity [26]: Active; Activity [27]: Active; Activity [23]: 98%; Activity [24]: 8%; Activity [28]: Dose-dependent effect; Activity [29]: 74.2%; Activity [30]: 39.7%; Activity [31]: Dose-dependent effect; half-life at 5 ug/ml [32]: 6.41 h
COc1ccc(NC(=O)Oc2ccc(N(CCCl)CCCl)cc2)cc1Nc1c2ccccc2nc2ccccc12,0.541,0.254,1.08,–,1.55,0.709,0.583,–,–,–,–,–,–
COc1ccc(NC(=O)Oc2ccc(N(CCCl)CCCl)cc2)cc1Nc1c2ccccc2nc2c(C)cccc12,0.205,0.11,1,0.54,0.338,0.841,0.21,–,–,–,–,–,–
Cc1cccc2c(Nc3cc(CO)cc(NC(=O)Oc4ccc(N(CCCl)CCCl)cc4)c3)c3ccccc3nc12,0.067,0.127,1.4,1.9,0.084,0.438,0.097,0.457,5.98,1.87,12.6,9.01,Activity [33]: Active
COc1ccc(Nc2c3ccccc3nc3c(C)cccc23)cc1NC(=O)Oc1ccc(N(CCCl)CCCl)cc1,0.024,0.19,1.1,7.9,0.138,0.238,0.027,0.357,1.58,2.25,8.85,3.43,–
COc1ccc(Nc2c3ccccc3nc3ccccc23)cc1NC(=O)Oc1ccc(N(CCCl)CCCl)cc1,0.085,0.119,1.9,1.4,0.181,0.186,0.16,–,–,–,–,–,–
Cc1ccc(NC(=O)Oc2ccc(N(CCCl)CCCl)cc2)cc1Nc1c2ccccc2nc2c(C)cccc12,0.132,0.093,1.05,0.7,0.163,0.263,0.138,0.623,4.47,4.66,10.6,5.71,–
CC[C@]1(O)C[C@@H]2CN(CCc3c([nH]c4ccccc34)[C@@](C(=O)OC)(c3cc4c(cc3OC)N(C)[C@H]3[C@@](O)(C(=O)OC)[C@H](OC(C)=O)[C@]5(CC)C=CCN6CC[C@]43[C@@H]65)C2)C1 [VINBLASTINE],0.00073,0.496,106.2,679.5,0.0022,0.0011,0.078,–,–,–,–,–,–
